In ChEMBL document CHEMBL3763077, “Discovery of pyrrolospirooxindole derivatives as novel cyclin dependent kinase 4 (CDK4) inhibitors by catalyst-free, green approach” (Eur J Med Chem, 2016):
The source made the active and inactive calls. The calls are words filed in the database; no cut-off is given here.

Assays:
[1] = Cytotoxicity against human DU145 cells assessed as cell growth inhibition after 48 hrs by MTT assay; type: functional, cell-based; settings: DU-145, 48 h
A549 = experiment: Cytotoxicity against human A549 cells assessed as cell growth inhibition after 48 hrs by MTT assay; type: functional, cell-based; settings: A549, 48 h
HT-29 = experiment: Cytotoxicity against human HT-29 cells assessed as cell growth inhibition after 48 hrs by MTT assay; type: functional, cell-based; settings: HT-29, 48 h
HeLa = experiment: Cytotoxicity against human HeLa cells assessed as cell growth inhibition after 48 hrs by MTT assay; type: functional, cell-based
MDA-MB-231 = experiment: Cytotoxicity against human MDA-MB-231 cells assessed as cell growth inhibition after 48 hrs by MTT assay; type: functional, cell-based; settings: MDA-MB-231, 48 h
[2] = Cell cycle arrest in human DU145 cells assessed as accumulation at sub G1 phase at 2 uM after 48 hrs by propidium iodide staining based flow cytometry (reference value: 8.20 %); type: functional; settings: DU-145
DU-145 [3] = experiment: Induction of apoptosis in human DU145 cells assessed as late apoptotic cells at 2 uM after 48 hrs by annexin V-FITC/PI staining based flow cytometry (reference value: 1.63 %); type: functional
[4] = Cell cycle arrest in human DU145 cells assessed as accumulation at G2/M phase at 1 uM after 48 hrs by propidium iodide staining based flow cytometry (reference value: 5.96 %); type: functional; settings: DU-145
[5] = Cell cycle arrest in human DU145 cells assessed as accumulation at S phase at 1 uM after 48 hrs by propidium iodide staining based flow cytometry (reference value: 1.59 %); type: functional; settings: DU-145
DU-145 [6] = experiment: Induction of apoptosis in human DU145 cells assessed as necrotic cells at 2 uM after 48 hrs by annexin V-FITC/PI staining based flow cytometry (reference value: 0.67 %); type: functional
[7] = Cell cycle arrest in human DU145 cells assessed as accumulation at sub G1 phase at 1 uM after 48 hrs by propidium iodide staining based flow cytometry (reference value: 8.20 %); type: functional; settings: DU-145
DU-145 [8] = experiment: Change in mitochondrial membrane potential in human DU145 cells at 1 uM after 48 hrs by JC-1 staining based flow cytometry (reference value: 95.6%); type: functional
DU-145 [9] = experiment: Induction of apoptosis in human DU145 cells assessed as viable cells at 1 uM after 48 hrs by annexin V-FITC/PI staining based flow cytometry (reference value: 95.57 %); type: functional; settings: DU-145, 48 h, read-out: Activity
[10] = Up regulation of Cip1/p21 expression in human DU145 cells at 1 to 2 uM after 48 hrs by Western blot analysis; type: functional, cell-based; settings: DU-145
[11] = Cell cycle arrest in human DU145 cells assessed as accumulation at G0/G1 phase at 2 uM after 48 hrs by propidium iodide staining based flow cytometry (reference value: 81.67 %); type: functional; settings: DU-145
DU-145 [12] = experiment: Induction of apoptosis in human DU145 cells assessed as viable cells at 2 uM after 48 hrs by annexin V-FITC/PI staining based flow cytometry (reference value: 95.57 %); type: functional; settings: DU-145, 48 h, read-out: Activity
[13] = Up regulation of Kip1/p27 expression in human DU145 cells at 1 to 2 uM after 48 hrs by Western blot analysis; type: functional, cell-based; settings: DU-145
[14] = Cell cycle arrest in human DU145 cells assessed as accumulation at G2/M phase at 2 uM after 48 hrs by propidium iodide staining based flow cytometry (reference value: 5.96 %); type: functional; settings: DU-145
DU-145 [15] = experiment: Induction of apoptosis in human DU145 cells at assessed as early apoptotic cells 1 uM after 48 hrs by annexin V-FITC/PI staining based flow cytometry (reference value: 2.13 %); type: functional
DU-145 [16] = experiment: Induction of apoptosis in human DU145 cells assessed as early apoptotic cells at 2 uM after 48 hrs by annexin V-FITC/PI staining based flow cytometry (reference value: 2.13 %); type: functional
[17] = Cell cycle arrest in human DU145 cells assessed as accumulation at G0/G1 phase at 1 uM after 48 hrs by propidium iodide staining based flow cytometry (reference value: 81.67 %); type: functional; settings: DU-145
DU-145 [18] = experiment: Induction of apoptosis in human DU145 cells assessed as necrotic cells at 1 uM after 48 hrs by annexin V-FITC/PI staining based flow cytometry (reference value: 0.67 %); type: functional
[19] = Down regulation of CDK4 expression in human DU145 cells at 1 to 2 uM after 48 hrs by Western blot analysis; type: functional, cell-based; settings: DU-145
[20] = Cell cycle arrest in human DU145 cells assessed as accumulation at S phase at 2 uM after 48 hrs by propidium iodide staining based flow cytometry (reference value: 1.59 %); type: functional; settings: DU-145
DU-145 [21] = experiment: Induction of apoptosis in human DU145 cells assessed as late apoptotic cells at 1 uM after 48 hrs by annexin V-FITC/PI staining based flow cytometry (reference value: 1.63 %); type: functional
DU-145 [22] = experiment: Change in mitochondrial membrane potential in human DU145 cells at 2 uM after 48 hrs by JC-1 staining based flow cytometry (reference value: 95.6%); type: functional

O=C1N(Cc2ccccc2)c2ccc(Br)cc2C12Nc1ccccc1-n1cccc12 (stereo not given)
IC50 [1]: 11.2 µM | IC50 (A549): 16.6 µM | IC50 (HT-29): 18.1 µM | IC50 (HeLa): 21 µM | IC50 (MDA-MB-231): 23.7 µM

Cc1ccc2c(c1)C1(Nc3ccccc3-n3cccc31)C(=O)N2 (stereo not given)
IC50 [1]: 12.5 µM | IC50 (A549): 13.5 µM | IC50 (HT-29): 14.5 µM | IC50 (HeLa): 11.2 µM | IC50 (MDA-MB-231): 22.1 µM

COc1cccc2c1C(=O)c1c(O)c3c(c(O)c1C2=O)C[C@@](O)(C(=O)CO)C[C@@H]3O[C@H]1C[C@H](N)[C@H](O)[C@H](C)O1 [DOXORUBICIN]
IC50 [1]: 1.82 µM | IC50 (A549): 1.06 µM | IC50 (HT-29): 1.16 µM | IC50 (MDA-MB-231): 1.67 µM

O=C1Nc2ccc(Br)cc2C12Nc1ccccc1-n1cccc12 (stereo not given)
IC50 [1]: 3.98 µM | IC50 (A549): 4.9 µM | IC50 (HT-29): 17 µM | IC50 (HeLa): 16.4 µM | IC50 (MDA-MB-231): 29.7 µM

COc1ccc2c(c1)C1(Nc3ccccc3-n3cccc31)C(=O)N2 (stereo not given)
IC50 [1]: 11 µM | IC50 (A549): 13.8 µM | IC50 (HT-29): 14.7 µM | IC50 (HeLa): 14.8 µM | IC50 (MDA-MB-231): 15.7 µM

O=C1Nc2ccc(F)cc2C12Nc1ccccc1-n1cccc12 (stereo not given)
IC50 [1]: 12.7 µM | IC50 (A549): 23.4 µM | IC50 (HT-29): 15.8 µM | IC50 (HeLa): 15.1 µM | IC50 (MDA-MB-231): 31.4 µM

O=C1Nc2ccc([N+](=O)[O-])cc2C12Nc1ccccc1-n1cccc12 (stereo not given)
IC50 [1]: 22.7 µM | IC50 (A549): 16.1 µM | IC50 (HT-29): 15.6 µM | IC50 (HeLa): 12.9 µM | IC50 (MDA-MB-231): 17.4 µM

O=C1N(Cc2ccc3c(c2)OCO3)c2ccccc2C12Nc1ccccc1-n1cccc12 (stereo not given)
IC50 [1]: 3.98 µM | IC50 (A549): 7.59 µM | IC50 (HT-29): 15.1 µM | IC50 (HeLa): 4.53 µM | IC50 (MDA-MB-231): 30 µM

O=C1N(Cc2ccccc2)c2ccc(Cl)cc2C12Nc1ccccc1-n1cccc12 (stereo not given)
IC50 [1]: 4.71 µM | IC50 (A549): 4.79 µM | IC50 (HT-29): 19 µM | IC50 (HeLa): 4.86 µM | IC50 (MDA-MB-231): 26.6 µM

O=C1N(Cc2ccccc2)c2ccccc2C12Nc1ccccc1-n1cccc12 (stereo not given)
IC50 [1]: 13.2 µM | IC50 (A549): 17 µM | IC50 (HT-29): 17.4 µM | IC50 (HeLa): 20 µM | IC50 (MDA-MB-231): 26.2 µM

O=C1N(Cc2ccc3c(c2)OCO3)c2ccc(Cl)cc2C12Nc1ccccc1-n1cccc12 (stereo not given)
Activity [2]: 29.1% | Activity (DU-145 [3]): 16.03% | Activity [4]: 4.2% | Activity [5]: 1.21% | IC50 [1]: 1.16 µM | Activity (DU-145 [6]): 1.63% | Activity [7]: 6.98% | Activity (DU-145 [8]): 87.7% | viability at 1 µM (DU-145 [9]): 60.6% | Activity [10]: Active | IC50 (A549): 2.11 µM | Activity [11]: 58.8% | viability at 2 µM (DU-145 [12]): 55% | IC50 (HT-29): 1.63 µM | Activity [13]: Active | Activity [14]: 4.46% | Activity (DU-145 [15]): 21.95% | Activity (DU-145 [16]): 27.36% | Activity [17]: 85.2% | IC50 (HeLa): 2.45 µM | Activity (DU-145 [18]): 2% | Activity [19]: Active | Activity [20]: 2.94% | Activity (DU-145 [21]): 15.42% | IC50 (MDA-MB-231): 2.34 µM | Activity (DU-145 [22]): 72.2%

O=C1Nc2ccccc2C12Nc1ccccc1-n1cccc12 (stereo not given)
IC50 [1]: 6.03 µM | IC50 (A549): 7.1 µM | IC50 (HT-29): 4.11 µM | IC50 (HeLa): 4.57 µM | IC50 (MDA-MB-231): 8.84 µM

O=C1Nc2ccc(Cl)cc2C12Nc1ccccc1-n1cccc12 (stereo not given)
IC50 [1]: 4.79 µM | IC50 (A549): 4.81 µM | IC50 (HT-29): 11 µM | IC50 (HeLa): 4.88 µM | IC50 (MDA-MB-231): 26.3 µM

O=C1Nc2ccc(I)cc2C12Nc1ccccc1-n1cccc12 (stereo not given)
IC50 [1]: 15.7 µM | IC50 (A549): 22.4 µM | IC50 (HT-29): 19 µM | IC50 (HeLa): 16.7 µM | IC50 (MDA-MB-231): 27.1 µM

O=C1Nc2c(F)cccc2C12Nc1ccccc1-n1cccc12 (stereo not given)
IC50 [1]: 12.7 µM | IC50 (A549): 11.3 µM | IC50 (HT-29): 12.7 µM | IC50 (HeLa): 12.4 µM | IC50 (MDA-MB-231): 15.9 µM
